Results on nine molecules are retold here after patent publication US20010010919A1 (priority 1998, published 2001).

Data set [1] addresses T1, novel mammalian opioid receptor (LC132, OFQR) (Rattus norvegicus, UniProt P35370).
T1 construct: The entire coding region of the receptor cDNA insert was subcloned into the RcRVS vector; expressed in transfected cells
The data set is classed as binding.

The next data set concerns DBA/2J mice. Kind of data set: Morphine hypothermia and Straub tail, core body temperature.
For another data set, the system named is C57BL/6J mice. Kind of data set: Precipitation of withdrawal in morphine dependent mice (withdrawal jumping). The data set is classed as in vivo, mouse.
The subject of data set [2] is mice. Briefly: Open-field observation and locomotor activity after icv administration. The data set is classed as in vivo, mouse. Here is the method:
For these experiments, the peptide was administered intracerebroventricularly (icv) and intrathecally (it) in mice. Immediately after peptide administration, mice were placed in transparent boxes in groups of three, and behavioral signs recorded. Emphasis was placed on signs indicative of depressant, stimulant and autonomic effects of the peptide (as described by Irwin, 1968, Psychopharmacologia 13: 222). […] The effects of the peptide on horizontal and vertical locomotor activity was measured using Digiscan Animal Activity Monitors (Omnitech, Columbus, Ohio). The values for horizontal and vertical locomotor activity represent the total number of interruptions of the horizontal and vertical sensors during the first 10 minutes following administration of the peptide. Data are shown as the mean±standard error of the mean.

In data set [3] the test system is mice. Kind of data set: Acetic acid abdominal constriction (AC, writhing) test. The data set is classed as in vivo, mouse. Conditions: for effect on SIA (decreased number of abdominal constrictions): OFQ 2.5 nmole icv, NAL sc. Here is the method: This test is an extremely sensitive measure of tonic, chemically-induced pain stimulus.
The AC assay was a modification of the technique originally described by Koster et al. Mice (N=9-15 per group) were acclimated to individual cylindrical Plexiglass observation chambers for >30 minutes. […] A separate group of Sal-treated mice received no icv injection (None). Between 5 and 10 minutes later, all mice were given an intraperitoneal (ip) injection of 0.9% acetic acid and placed back in their observation chambers. For the next 30 minutes, the number of abdominal constrictions (lengthwise stretches of the torso with a concomitant concave arching of the back) were counted and recorded. Four mice in separate chambers were observed simultaneously by a single experimenter blind to drug condition.

The subject of data set [4] is mice. Briefly: Nociception in mice (hot plate, toe- and tail-pinch) after icv or intrathecal administration. The data set is classed as in vivo, mouse.
For data set [5] the following is noted: Meunier et al., Nature 377,532-535 (1995); cited from earlier work.
Data set [6] deals with Swiss-Webster mice. Kind of data set: Tail-withdrawal (TW) test 46° C., stress-induced analgesia. The data set is classed as in vivo, mouse. Conditions: for hyperalgesia: 46° C. TW test; for effect on the 4 s post-injection increase in TW latency (stress-induced analgesia): OFQ 10 nmole icv, naloxone 1 mg/kg sc. Here is the method: The latency to respond to the heat stimulus by a vigorous flexion of the tail was measured to the nearest 0.1 s by an experienced observer blind to the drug condition of the animal. Mice were lightly restrained in a cloth/cardboard holder during testing. In the absence of a withdrawal reflex or other indication of distress, the tail was removed from the water after a cut-off latency of 15 s. To improve accuracy, three separate TW latency determinations, separated by 20 s, were made and averaged at each test. […] Because there were no changes in post-injection TW latencies in any group with repeated testing at 10, 20 and 30 min post-injection, data from these time points were pooled.

For data set [7], the system named is Swiss-Webster mice. Briefly: Reversal of morphine analgesia, 49° C. TW test. The data set is classed as in vivo, mouse.
Data set [8] deals with untransfected COS-7 and Ltk^− cells. Kind of data set: Radioligand binding to membranes of untransfected cells (control). Conditions: untransfected cell membranes.

“Also recorded” adds a separate entry of the source.

T1 sequence (P35370 whole entry): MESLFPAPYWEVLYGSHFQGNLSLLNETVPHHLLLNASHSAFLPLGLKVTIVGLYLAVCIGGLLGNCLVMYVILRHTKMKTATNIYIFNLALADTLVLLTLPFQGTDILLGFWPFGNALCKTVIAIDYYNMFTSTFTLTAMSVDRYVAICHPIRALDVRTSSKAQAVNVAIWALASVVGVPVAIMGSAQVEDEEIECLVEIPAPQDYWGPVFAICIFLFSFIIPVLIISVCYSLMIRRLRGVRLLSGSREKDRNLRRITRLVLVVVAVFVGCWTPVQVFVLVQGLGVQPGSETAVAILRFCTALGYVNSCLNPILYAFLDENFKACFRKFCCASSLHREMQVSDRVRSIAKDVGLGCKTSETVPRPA

For `C[C@@H](NC(=O)[C@@H](N)Cc1ccc(O)cc1)C(=O)NCC(=O)N(C)[C@@H](Cc1ccccc1)C(=O)NCCO` [DAMGO, Tyr-DAla-Gly-Met-Phe-Gly-ol], the “specific binding of the radioactively-labeled ligand” value (“specific binding” for short) in data set [1] is “no specific binding”.
For `CC(C)C[C@H](NC(=O)[C@H](CCCCN)NC(=O)[C@H](CCCNC(=N)N)NC(=O)[C@H](C)NC(=O)[C@H](CO)NC(=O)[C@H](CCCCN)NC(=O)[C@H](CCCNC(=N)N)NC(=O)[C@H](C)NC(=O)CNC(=O)[C@@H](NC(=O)[C@H](Cc1ccccc1)NC(=O)CNC(=O)CNC(=O)[C@@H](N)Cc1ccccc1)[C@@H](C)O)C(=O)N[C@@H](C)C(=O)N[C@@H](CC(N)=O)C(=O)N[C@@H](CCC(N)=O)C(=O)O` [OFQ], the “reversal of 20 mg/kg MOR hypothermia” value in the data set with DBA/2J mice (5 and 10 nmole i.c.v., 60-90 minutes post-MOR injection) is given as “significantly reversed”. Besides, the “effect of the substance itself on body temperature” value in the data set with DBA/2J mice (5 or 10 nmole i.c.v.) is reported as “did not affect body temperature”. In the data set with DBA/2J mice (at least 5 nmole OFQ icv), the “elimination of morphine Straub tail” value is “effectively eliminated Straub tail in the vast majority of animals” and the “time to elimination of Straub tail following icv injection” value lay in the range of 1 to 2 min. The “precipitated withdrawal syndrome (withdrawal jumping)” value in the data set with C57BL/6J mice (OFQ 0.1-10 nmole i.c.v., 20-min testing period) is on record as “equally effective in the precipitation of withdrawal; also recorded: unequivocal, albeit modest in comparison to that produced by systemic naloxone”. The other withdrawal symptoms result with C57BL/6J mice (OFQ i.c.v.) was “wet-dog shakes and ptosis, were observed”. Moreover, the “horizontal and vertical locomotion” value in the data set on mice [2] (icv 0.1-10 nmole/2 μL/mouse, first 10 minutes) is “decrease of both horizontal and vertical locomotion”. In addition, the open-field behavioral signs result in the data set with mice [2] (larger doses, above 1 nmole/2 μL/mouse) was “profound influence on locomotor activity, as well as a decrease in muscle tone, a loss of righting reflex, and ataxia”. For the same molecule, the “inhibition of the analgesic effect of morphine” value in the data set with mice [3] (2.5 nmole icv, within 30 minutes) was “pharmaceutically sufficient to inhibit the analgesic effect of morphine”. Also, the “effect on SIA (decreased number of abdominal constrictions)” value with mice [3] is “reversed”. Besides, the “toe- and tail-pinch reflexes” value in the data set with mice [4] (all doses tested) is “normal toe- and tail-pinch reflexes”. Further, in the data set on mice [4] (icv, hot plate 58° C., cutoff 60 sec), the “analgesic effect in hot plate test” value is reported as “little analgesic effect”. In addition, the “analgesic effect, intrathecal” value in the data set on mice [4] (intrathecally 2.5-10 nmole/4 μL/animal) is “No analgesic effect”. Besides, the “effect on pain sensitivity in tail flick and hot-plate assays” value in data set [5] is “induces hyperalgesia”. In the data set on Swiss-Webster mice [6], the hyperalgesia entry is “no evidence of hyperalgesia” and the “effect on the 4 s post-injection increase in TW latency (stress-induced analgesia)” value is “attenuated”. The “reversal of morphine analgesia” value in the data set with Swiss-Webster mice [7] (OFQ 2.5-25 nmole i.c.v.) is reported as “reversed this analgesia in a dose-dependent manner”. Besides, the “ED50, 50% inhibition of 5 mg/kg morphine analgesia” value with Swiss-Webster mice [7] (i.c.v. in a 2.5 μl volume, linear regression) was found to be 7.5 nmol.
`CCC12CCN(CC3(O)CC3)C(Cc3ccc(O)cc31)C2(C)C` (centres unmarked) [bremacozine]: in data set [1], the “specific binding” value is on record as “no specific binding”.
For the molecule `CN1CC[C@]23c4c5ccc(O)c4O[C@H]2[C@@H](O)CC[C@H]3[C@H]1C5` [dihydromorphine], in [1], the “specific binding” value is on record as “no specific binding”.
In the case of `CCC(=O)C(CC(C)N(C)C)(c1ccccc1)c1ccccc1` (centres unmarked) [methadone], in [1], the Bmax is 400-450 fentomoles/μg protein and the “specific binding” value is reported as “specific binding was found”. Moreover, in data set [8], the “endogenous binding of the radiolabeled ligand” value is on record as “no or negligible amounts of endogenous methadone binding”.
With `CN1CC[C@]23c4c5ccc(O)c4O[C@H]2[C@@H](O)C=C[C@H]3[C@H]1C5` [morphine], the Straub tail production result in the data set on DBA/2J mice (morphine 20 mg/kg) is “produced Straub tail”. The “decrease in body temperature” value with DBA/2J mice (morphine 20 mg/kg i.p.) was 6 °C. Besides, in the data set on Swiss-Webster mice [7] (morphine sulfate 5 mg/kg s.c.), the analgesia produced result is given as “profound analgesia”, the duration of analgesia result was “about 2 hours” and the “time of peak analgesia post-injection” value was 30 min.
With `C=CCN1CC[C@]23c4c5ccc(O)c4O[C@H]2C(=O)CC[C@@]3(O)[C@H]1C5` [naloxone, reference compound], the “effect on SIA (decreased number of abdominal constrictions)” value in the data set on mice [3] is given as “reversed”. For the same molecule, in data set [8], the “endogenous binding of the radiolabeled ligand” value was “endogenous low levels of specific”. In addition, in the data set with Swiss-Webster mice [6], the hyperalgesia entry was “In no case did any mouse treated with OFQ or naloxone exhibit hyperalgesia” and the “effect on the 4 s post-injection increase in TW latency (stress-induced analgesia)” value is “attenuated”.
Turning to “c[D-penicillamine^2, D-penicillamine^5]enkephalin [DPDPE]”, the “specific binding” value in data set [1] was “no specific binding”.
Regarding “β-endorphin: endogenous opioid peptide, 125I-labeled”, the “specific binding” value in data set [1] was “no specific binding”.
